Data as given in patent US11260060B2, “Methods and formulations for treatment of and/or protection against acute liver failure and other hepatotoxic conditions” (EGETIS THERAPEUTICS AB, priority 2016, dated 2022).

Columns and labels:
[1] = Forced temperature degradation of a NAC/CaM mixture at 70° C. for 6 hours; assay type: physicochemical; conditions: NAC/CaM mixture in deionised water
Description: This Example describes short and long term stability studies involving mixtures of Calmangafodipir and NAC. Each mixture was formed by adding CaM (in the form of a trisodium salt powder) and NAC to deionised water and mixing on a Vortex shaker. The solution was then transferred to an amber vial. In these studies, typically no additives or stabilizers were used. Standard degradation studies undertaken at short term used the known method of “forced” temperature degradation by storing solutions at 70° C. for 6 hours (to indicate general longer-term storage performance). Samples were withdrawn at specified time points and analyzed by standard spectroscopic methods for N-acetylcysteine (NAC), Calmangafodipir (CaM) and Calmangafodipir-related substances.

[2] = system: acetaminophen-induced ALF in male B6C3F1 mice; assay: Acetaminophen-induced ALF mouse model, ALAT at 12 hours; assay type: in vivo; conditions: NAC 30-300 mg/kg 1 hour post 300 mg/kg i.p. acetaminophen, FIG. 7
Protocol: In each experiment, an i.p. injection of 300 mg/kg acetaminophen was made to male B6C3F1 mice to cause acetaminophen-induced ALF. In a first experiment, a 300 mg/kg dosage of NAC was administered 1-6 hours after acetaminophen administration. In a second experiment, NAC was administered in a dosage of 30-300 mg/kg NAC 1 hour after acetaminophen administration. In a third experiment, a dosage of 0.3-10 mg/kg calmangafodipir (CaM) was administered 6 hours post acetaminophen administration. In each experiment, ALAT was measured 12 hours following the i.p. injection of 300 mg/kg acetaminophen. FIGS. 6 to 8 show ALF response to administration of NAC and CaM, as detected by monitoring ALAT. […] FIG. 7 indicates the NAC dose-response of NAC administration of 30-300 mg/kg NAC 1 hour post acetaminophen administration. Mean±SEM ALAT levels at 12 hours following i.p. injection of 300 mg/kg acetaminophen in male B6C3F1 mice (n=4-11 per bar) are shown. […] Median±interquartile ALAT levels at 12 hours following i.p. injection of acetaminophen in male B6C3F1 mice (n=4-16 per bar) are shown. Due to some outlier values, and variability from the two experiments, both of which are not unexpected in such model system studies, the data points are plotted individually as well as the median values±inter-quartile range.

[3] = system: acetaminophen-induced ALF in male B6C3F1 mice; assay: Animal deaths in acetaminophen-induced ALF mice within 12 hour sampling period; assay type: in vivo; conditions: within 12 hours after APAP 300 mg/kg i.p., i.v. treatment 1-6 hours post APAP, pooled doses
Description: This Example studied the pharmaceutical effects of individual and combined therapies on animal deaths and involved male B6C3F1 mice. Even though serum enzyme activity studies are strongly indicative of liver failure or protection, it is also important to consider other data such as that related to subject animal deaths (%) as a function of the pharmacological treatment. The experiments of this Example studied the pharmaceutical effects of individual and combined therapies on animal deaths in male B6C3F1 mice. The mice were fasted for 8-10 hours and ALF was induced with 300 mg/kg acetaminophen (APAP), i.p., with treatment as specified in the following test groups: • APAP control (n=81, APAP 300 mg/kg i.p.), • NAC (n=53, 30-300 mg/kg i.v., 1-6 hours post APAP), • CaM (n=97, 0.3-10 mg/kg i.v., 1-6 hours post APAP), • CaDPDP (n=10, 3-10 mg/kg i.v., 6 hours post APAP), and • NAC/CaM (n=28, NAC 300 mg/kg, combined with 0.3-10 mg/kg CaM i.v., 2.5-6 hours post APAP).

Row | Compound | concentration of NAC during forced degradation [1] | NAC dose-response of ALAT levels [2] | Deaths, % [3] [%] | Deaths, no. [3] | decrease in CaM concentration during forced degradation [1] | Deaths, % ([3]; listed as calmangafodipir) [%]
1 | CC(=O)N[C@@H](CS)C(=O)O [NAC, N-acetylcysteine] | remained constant | No clear dose-response could be detected | 8 | 4 |  | 
2 | calmangafodipir [CaM] |  |  | 8 | 8 | about 1 % per hour | 8
